Measurements published in patent publication US20160024092A1, “INTRAVENOUS FORMULATIONS OF NEUROKININ-1 ANTAGONISTS” (OPKO Health, Inc., priority 2009, published 2016).
≈ marks a conversion by molar mass, not a printed value. Read-outs that look alike come from different tables or passages of the source.

Key:
red blood cells = assay: Hemolytic testing in rats after intravenous administration (hemoglobin in urine, Hemastix reagent strips); assay type: in vivo, rat; set-up: key: Hemastix scale: 0=negative, 1=non-hemolyzed trace … 6=large+++; details: 1-2 min slow-hand bolus, 10 mg/mL drug in 22% Solutol HS15, pH 7.0
Source text: The term “hemolysis” as used herein means destruction of red blood cells which leads to the release of hemoglobin from within the red blood cells into the blood plasma. Hemolysis can be measured by methods well known in the art, e.g., Hemastix® reagent strips (Bayer Corp., Elkhart, Ind.) which detect blood in urine. The
Hemastix® reagent strips turn from yellow to dark green depending upon the amount of hemoglobin found in the urine. The Hemastix® scale is as follows: 0=negative, 1=non-hemolyzed trace, 3=hemolyzed trace, 4=small+, 5=moderate++, and 6=large+++.
Urine samples from the rats were assessed for hemolysis using Hemastix® reagent strips (No. 2190, Bayer Corp., Elkhart Ind.). […] The Hemastix® reagent strips detect the peroxide-like activity of hemoglobin. The strips turn from yellow to dark green depending upon the amount of hemoglobin found in the urine. The Hemastix® scale is as follows: 0=negative, 1=non-hemolyzed trace, 3=hemolyzed trace, 4=small+, 5=moderate++, and 6=large+++.
The methodology for this study was to administer (into the tail vein of a rat) each formulation over 15 minutes by intravenous infusion using an infusion pump or to administer the formulation within two minutes by bolus route using a syringe. Urine was tested for the presence of free hemoglobin using the pooled urine collection method at the six-hour interval. For the six hour pooled urine collection, rats were dosed and placed in a metabolism cage. Six hour post dose, the rats were euthanized by carbon dioxide over-inhalation, and the urine sample was collected. A minimum of five subjects were tested for each formulation and the urine samples were analyzed for hemolysis using Hemastix® reagent strips as indicated in Comparative Example 2.
[…] If the rat voided any urine in the cage, the urine was analyzed using Hemastix® reagent strips to determine the presence of hemoglobinuria.
The methodology for this example was to administer each formulation over 15 minutes by i.v. infusion using an infusion pump or to administer the formulations within 2 minutes by bolus injection using a syringe and delivering the formulation into the tail vein of a rat. Urine was tested by dipstick for the presence of free hemoglobin using the pooled urine collection method at the 6-hour interval.

[1] = Equilibrium solubility of Compound 1 (HPLC); assay type: physicochemical; details: for solubility thermodynamic: thermodynamic from solid, pH 7.0
pKa of Compound 1 = assay type: physicochemical
[2] = in vivo

solubility thermodynamic ([1]; 16% Captisol (sulfobutyl ether beta-cyclodextrin), aqueous with cosolvent or surfactant or cyclodextrin, 16% Captisol): < 0.006 mg/mL
solubility ([1]; 22% Solutol, aqueous with cosolvent or surfactant or cyclodextrin): 50 mg/mL (≈ 99.9 mM)
solubility thermodynamic ([1]; aqueous with cosolvent or surfactant or cyclodextrin, 20% Solutol): ~50 mg/mL (≈ 99.9 mM)
solubility ([1]; pH 7.4, aqueous buffer, read-out: solubility at the physiological pH of 7.4): < 0.004 mg/mL
pKa (pKa of Compound 1): 6.9
time at which half concentration is achieved [2]: around 180 hrs
Structure (SMILES): C[C@@H](OC[C@@]1(c2ccccc2)CC[C@]2(CCC(=O)N2)CN1)c1cc(C(F)(F)F)cc(C(F)(F)F)c1 [Compound 1, (5S,8S)-8-[{(1R)-1-(3,5-Bis-(trifluoromethyl)phenyl)-ethoxy}-methyl]-8-phenyl-1,7-diazaspiro[4.5]decan-2-one]
Hemolysis (Female rats) (red blood cells; 10 mg/kg, 15 min): 1
Hemolysis (Male rats) (red blood cells; 10 mg/kg, 15 min): 3
Hemolysis (Female rats) (red blood cells; 10 mg/kg, 30 min): 1
Hemolysis (Male rats) (red blood cells; 10 mg/kg, 30 min): 0
Hemolysis (Female rats) (red blood cells; 10 mg/kg, 60 min): 0
Hemolysis (Male rats) (red blood cells; 10 mg/kg, 60 min): 0
Hemolysis (Female rats) (red blood cells; 20 mg/kg, 15 min): 3
Hemolysis (Male rats) (red blood cells; 20 mg/kg, 15 min): 3
Hemolysis (Female rats) (red blood cells; 20 mg/kg, 30 min): 0
Hemolysis (Male rats) (red blood cells; 20 mg/kg, 30 min): 3
Hemolysis (Female rats) (red blood cells; 20 mg/kg, 60 min): 0
Hemolysis (Male rats) (red blood cells; 20 mg/kg, 60 min): 0
Hemolysis (Female rats) (red blood cells; 30 mg/kg, 15 min): 3
Hemolysis (Male rats) (red blood cells; 30 mg/kg, 15 min): 3
Hemolysis (Female rats) (red blood cells; 30 mg/kg, 30 min): 2
Hemolysis (Male rats) (red blood cells; 30 mg/kg, 30 min): 0
Hemolysis (Female rats) (red blood cells; 30 mg/kg, 60 min): 0
Hemolysis (Male rats) (red blood cells; 30 mg/kg, 60 min): 0
